Measured values: patent US4977155A, “1,2,3-triazolo compounds” (priority 1988, dated 1990)
≈ marks a conversion by molar mass, not a printed value. Where two headings read alike, the source gives them in different places.

Assays:
[1] = system: N-methyl-D-aspartate (NMDA) receptors; settings: cited from earlier work
kainate receptors = settings: in words, background; cited from earlier work
Quisqualate receptors = settings: in words, background; cited from earlier work
[2] = target: quisqualate type receptors; assay: 3H-AMPA binding (Test 1); settings: rat cerebral cortical membrane homogenate; 5 nM 3H-AMPA; 0° C., 30 min, pH 7.1
From the text: The quisqualate receptor binding activity of the compounds of the present invention can be illustrated by determining their capability for displacing radioactively labelled 2-amino-3-hydroxy-5-methyl-4-isoxazolepropionic acid (AMPA) from the quisqualate type receptors.
The displacement activity of the compounds may be shown by determining the IC50 value which represents the concentration (μg/ml) which causes a displacement of 50% of the specific binding of ^3 H-AMPA.
^3 H-AMPA binding (Test 1)
500 μl of thawed rat cerebral cortical membrane homogenate in Tris-HCl (30 mM), CaCl2 (2.5 mM) and KSCN (100 mM) pH 7.1 were incubated at 0° C. for 30 min. with 25 μl ^3 H-AMPA (5 nM final concentration) and the test compound and buffer. Non-specific binding was determined by incubation with L-glutamic acid (600 μM final concentration). The binding reaction was terminated by adding 5 ml of ice-cold buffer followed by filtration through Whatman GF/C glass fibre filters and 2×5 ml wash with ice-cold buffer. Bound radioactivity was measured by scintillation counting. IC50 was determined by Hill analysis of at least four concentrations of test compound.

[3] = system: quisqualic acid stimulated Na^+ -efflux from rat striatal slices; assay: Antagonism of quisqualic acid induced 22Na+ release (Test 2); format: cell-based; settings: rat striatum slices; quisqualic acid 2 μg/ml; read-out: Test 2 EC50 (reduces rate of quisqualic acid stimulated sodium efflux by 50%)
Experimental: The quisqualate antagonism is measured by determining the EC50 value which represents the concentration which reduces the rate of quisqualic acid stimulated sodium efflux by 50%.
Antagonism of quisqualic acid induced ^22 Na^+ -release (Test 2)
Slices from rat striatum were preincubated with ^22 Na^+ for 30 min. After the ^22 Na^+ loading period, the slices were successively and every minute transferred through a series of tubes, each containing 1.5 ml of a non-radioactive physiological solution saturated with O2, with the help of a basket shaped sieve. Quisqualic acid (2 μg/ml) was present in the last 5 tubes and the compound to be tested was present in the same 5 tubes plus 3 tubes before. The amount of radioactivity in each washout tube as well as that left in the slices at the end of the experiment was measured by scintillation counting. EC50 were calculated by Hill analysis from at least three different concentrations of test compound as the concentration of test compound which reduces the efflux rate of ^22 Na^+ -ions to 50% of the efflux rate in the absence of test compound.

[4] = system: NMDA stimulated ^3 H-GABA release from cultured mouse cortex neurons; assay: Inhibition of NMDA stimulated 3H-GABA release from cultured mouse cerebral cortex interneurons (Test 3); format: cell-based; settings: Neuron, 3 μg/ml NMDA, read-out: Test 3 IC50 (inhibits 50% of NMDA induced 3H-GABA release)
From the text: The NMDA antagonistic properties of the compounds is illustrated by determining their capability to antagonize NMDA stimulated ^3 H-GABA release from cultured mouse cortex neurons.
The NMDA antagonistic activity of the compounds may be shown by determining the IC50 value, which represents the concentration (μg/ml) which inhibits 50% of NMDA induced ^3 H-GABA release.
Inhibition of NMDA stimulated ^3 H-GABA release from cultured mouse cerebral cortex interneurons (Test 3) Release experiments are performed using the model described by Drejer et al. (Life Sci. 38, 2077 (1986)). To cerebral cortex interneurons cultured in petri dishes (30 mm) are added 100 μg/ml 3-vinyl-GABA one hour before the experiment in order to inhibit degradation of GABA in the neurons. 30 min before the experiment 5 μCi ^3 H-GABA is added to each culture and after this preloading period the cells are washed twice with a HEPES (N-2 Hydroxyethylpiperazine-N'-2-ethanesulfonic acid) buffered saline (HBS) containing 10 mM HEPES, 135 mM NaCl, 5 mM KCl, 0.6 mM MgSO4, 1.0 mM CaCl2 and 6 mM D-glucose; pH 7 and placed in a superfusion system. This system consists of a peristaltic pump continuously delivering thermostated 37° C. superfusion medium from a reservoir to the top of a slightly-tilted petri dish. The cell monolayer at the bottom of the dish is covered with a piece of nylon mesh to facilitate dispersion of medium over the cell layer. The medium is continuously collected from the lower part of the dish and delivered to a fraction collector. Initially, the cells are superfused with HBS for 15 min (flow rate 2 ml/min). Then cells are stimulated for 30 sec every 4 min by changing the superfusion medium from HBS to a corresponding medium containing NMDA and antagonists according to the following scheme: […]
stimulation no. 1: 3 μg/ml NMDA stimulation no. 2: 3 μg/ml NMDA+0.3 μg/ml antagonist stimulation no. 3: 3 μg/ml NMDA+3 μg/ml antagonist
Test substances are dissolved in water or 48% ethanol. The final ethanol concentration in the assay must not exceed 0.1%.
The release of ^3 H-GABA in the presence of NMDA (stimulated relase in cpm) are corrected for the mean basal release (cpm) before and after the stimulation.
The stimulated release in the presence of antagonists are expressed relative to the stimulated release by NMDA alone and the IC50 value for the antagonist is calculated (the concentration (μg/ml) of the test substance which inhibits 50% of the NMDA induced ^3 H-GABA release) either from a dose response curve or from the formula: [formula] where Co is stimulated release in control assays and Cx is the stimulated release in the test assay (the calculation assumes normal mass-action interaction). 25-75% inhibition of the NMDA stimulation must be obtained, before calculation of IC50.

| Structure (SMILES) | Test 1 IC50 (displacement of 50% of the specific binding of 3H-AMPA) [2] | IC50 [4] | further results |
| --- | --- | --- | --- |
| O=C(O)[C@@H]1CCCN[C@H]1C(=O)O (relative stereo) [trans-2,3-PDA, trans-2,3-piperidine dicarboxylic acid] | – | – | agonist activity on NMDA receptors ([1]; in words, background): strong to moderate agonist activity |
| N[C@@H](CCC(=O)NCC(=O)O)C(=O)O [3-glutamyl-glycine] | – | – | selectivity for kainate receptors (kainate receptors): some selectivity for kainate receptors |
| Cc1onc(O)c1CC(N)C(=O)O (stereo not drawn) [AMPA, 2-amino-3-hydroxy-5-methyl-4-isoxazolepropionic acid] | – | – | agonist activity on quisqualate receptors (Quisqualate receptors): potent agonists |
| N[C@H](CCCC(=O)O)C(=O)O [D-2-amino-adipic acid] | – | – | antagonist activity on NMDA receptors ([1]; in words, background): moderate antagonist activity |
| N[C@H](CCCCCP(=O)(O)O)C(=O)O [D-APH, 2-amino-7-phosphonoheptanoic acid] | – | – | antagonist activity on NMDA receptors ([1]; in words, background): most potent and selective antagonists |
| N[C@H](CCCP(=O)(O)O)C(=O)O [D-APV, 2-amino-5-phosphono-valeric acid] | – | – | antagonist activity on NMDA receptors ([1]; in words, background): most potent and selective antagonists |
| N[C@H](CCC(=O)O)C(=O)O [D-glutamic acid] | – | – | agonist activity on NMDA receptors [1]: strong to moderate agonist activity |
| Oc1nc2ccc3nn[nH]c3c2nc1O [Ex 1, 7,8 Dihydroxy-1H-1,2,3-triazolo[4,5-f]quinoxaline] | 13,3 μg/ml | – | – |
| O=[N+]([O-])c1cc2nc(O)c(O)nc2c2[nH]nnc12 [Ex 2, 7,8-Dihydroxy-4-nitro-1H-1,2,3-triazolo[4,5-f]quinoxaline] | 0,85 μg/ml | 0.26 µg/mL (≈ 1.05 µM) | EC50 [3]: 10 µg/mL (≈ 40.3 µM) |
| N#Cc1cc2nc(O)c(O)nc2c2[nH]nnc12 [Ex 4, 4-Cyano-7,8-dihydroxy-1H-1,2,3-triazolo[4,5-f]quinoxaline] | 10 µg/mL | – | – |
| Cn1nnc2c([N+](=O)[O-])cc3nc(O)c(O)nc3c21 [Ex 6, 7,8-Dihydroxy-1-methyl-4-nitro-1H-1,2,3-triazolo[4,5-f]quinoxaline] | 0,31 μg/ml | 0.096 µg/mL (≈ 0.366 µM) | EC50 [3]: 4.1 µg/mL (≈ 15.6 µM) |
| O=[N+]([O-])c1cc2nc(O)c(O)nc2c2[nH]ncc12 [Ex 9, 7,8-Dihydroxy-4-nitro-1H-pyrazolo[3,4-f]quinoxaline] | 0,41 μg/ml | 0.14 µg/mL (≈ 0.566 µM) | – |
| Cn1nc2c([N+](=O)[O-])cc3nc(O)c(O)nc3c2n1 [Ex 11, 7,8-Dihydroxy-2-methyl-4-nitro-2H-1,2,3-triazolo[4,5-f]quinoxaline] | 0,36 μg/ml | 0.14 µg/mL (≈ 0.534 µM) | – |
| Cn1nnc2c3nc(O)c(O)nc3cc([N+](=O)[O-])c21 [Ex 13, 7,8-Dihydroxy-3-methyl-4-nitro-3H-1,2,3-triazolo[4,5-f]quinoxaline] | 0,07 μg/ml | 0.11 µg/mL (≈ 0.42 µM) | – |
| Cn1nnc2c3nc(O)c(O)nc3cc(C#N)c21 [Ex 15, 4-Cyano-7,8-dihydroxy-3-methyl-3H-1,2,3-triazolo[4,5-f]quinoxaline] | 0,19 μg/ml | 0.73 µg/mL (≈ 3.01 µM) | – |
| O=[N+]([O-])c1cc2nc(O)c(O)nc2c2scnc12 [Ex 17, 7,8-Dihydroxy-4-nitrothiazolo[5,4-f]quinoxaline] | 0,21 μg/ml | – | – |
| O=[N+]([O-])c1cc2nc(O)c(O)nc2c2nonc12 [Ex 24, 7,8-Dihydroxy-4-nitro-l,2,5-oxadiazolo(3,4-f)quinoxaline] | 0,23 μg/ml | 0.13 µg/mL (≈ 0.522 µM) | – |
| O=[N+]([O-])c1cc2nc(O)c(O)nc2c2nccnc12 [Ex 35, 2,3-Dihydroxy-6-nitropyrazino(2,3-f)quinoxaline] | 0,39 μg/ml | 0.1 µg/mL (≈ 0.386 µM) | – |
| Cc1nc2c([N+](=O)[O-])cc3nc(O)c(O)nc3c2nc1C [Ex 36, 2,3-Dihydroxy-8,9-dimethyl-6-nitropyrazino(2,3-f)quinoxaline] | 0,39 μg/ml | 0.14 µg/mL (≈ 0.487 µM) | – |
| O=[N+]([O-])c1cc2nc(O)c(O)nc2c2nsnc12 [Ex 38, 7,8-Dihydroxy-4-nitro-1,2,5-thiadiazolo(3,4-f)quinoxaline] | 0,13 μg/ml | 0.09 µg/mL (≈ 0.339 µM) | – |
| Oc1nc2ccc3sccc3c2nc1O [Ex 39, 2,3-Dihydroxythieno[3,2-f]quinoxaline] | 1,9 μg/ml | – | – |
| CCOC(=O)CC[C@H](N)C(=O)OCC [GDEE, Glutamic acid diethyl ester] | – | – | antagonist activity on quisqualate receptors (Quisqualate receptors): selective but very weak antagonist |
| N[C@H](C(=O)O)c1cc(=O)[nH]o1 [Ibotenic acid] | – | – | agonist activity on NMDA receptors ([1]; in words, background): strong to moderate agonist activity |
| N[C@@H](CCC(=O)O)C(=O)O [L-glutamic acid] | – | – | agonist activity on quisqualate receptors (Quisqualate receptors): potent agonists |
| N[C@@H](CCS(=O)(=O)O)C(=O)O [L-homocysteic acid] | – | – | agonist activity on NMDA receptors ([1]; in words, background): strong to moderate agonist activity |
| N[C@H](CCC[C@H](N)C(=O)O)C(=O)O [diaminopimelic acid] | – | – | antagonist activity on NMDA receptors ([1]; in words, background): moderate antagonist activity |
| N[C@@H](Cn1oc(=O)[nH]c1=O)C(=O)O [quisqualic acid] | – | – | agonist activity on quisqualate receptors (Quisqualate receptors): activated selectively |
